Data reported in ChEMBL document CHEMBL1141039, “Hepatitis C virus NS3-4A serine protease inhibitors: SAR of P'2 moiety with improved potency” (Bioorg Med Chem Lett, 2005).
pKi: −log10 of the molar value. Numbered stars: 1 amine (or outer) side, 2 acyl side, 3 side chain; on linkers, the order of the positions; unused ones are H or OH. Square brackets hold non-standard residues; d marks the D form. Peptide text beside a SMILES is read from it. * marks the point of attachment. Gly(piperidin-4-yl) = N[C@H](C(=O)O)C1CCNCC1; 2Nal = N[C@@H](Cc1ccc2ccccc2c1)C(=O)O; Isobutyloxycarbonyl = CC(C)COC(=O)*; Gly(cPent) = N[C@H](C(=O)O)C1CCCC1; X1 = CCCC(N[*:1])C(=O)C(=O)[*:2]; hPhe = N[C@@H](CCc1ccccc1)C(=O)O; Aad = N[C@@H](CCCC(=O)O)C(=O)O; Cha = N[C@@H](CC1CCCCC1)C(=O)O; Chg = N[C@H](C(=O)O)C1CCCCC1; Phg = N[C@H](C(=O)O)c1ccccc1; Tle = CC(C)(C)[C@H](N)C(=O)O; hSer = N[C@@H](CCO)C(=O)O; Nle = CCCC[C@H](N)C(=O)O; Boc = CC(C)(C)OC(=O)*; OBn = c1ccc(CO*)cc1; Bn = c1ccc(C*)cc1; OtBu = CC(C)(C)O*; tBu = CC(C)(C)*

Target: NS3 (Hepatitis C virus, UniProt A3EZJ3)
Sequence (A3EZJ3 whole entry): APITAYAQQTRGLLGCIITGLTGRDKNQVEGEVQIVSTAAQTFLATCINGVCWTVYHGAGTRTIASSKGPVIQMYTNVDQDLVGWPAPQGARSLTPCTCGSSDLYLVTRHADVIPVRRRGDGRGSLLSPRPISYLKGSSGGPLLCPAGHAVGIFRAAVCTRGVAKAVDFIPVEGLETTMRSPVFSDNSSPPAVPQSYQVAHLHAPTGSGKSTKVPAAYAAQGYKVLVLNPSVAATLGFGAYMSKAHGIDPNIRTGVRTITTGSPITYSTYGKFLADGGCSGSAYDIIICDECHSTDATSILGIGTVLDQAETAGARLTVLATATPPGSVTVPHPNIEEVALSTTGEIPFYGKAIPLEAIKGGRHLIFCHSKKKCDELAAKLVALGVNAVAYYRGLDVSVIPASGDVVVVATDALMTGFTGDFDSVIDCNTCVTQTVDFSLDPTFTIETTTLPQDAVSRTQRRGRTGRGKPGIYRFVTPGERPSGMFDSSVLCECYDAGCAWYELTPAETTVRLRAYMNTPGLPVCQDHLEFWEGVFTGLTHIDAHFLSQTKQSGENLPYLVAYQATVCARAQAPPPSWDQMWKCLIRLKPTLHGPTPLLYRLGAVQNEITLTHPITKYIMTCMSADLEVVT
Test: Inhibitory activity against Hepatitis C virus NS3 serine protease in continuous spectrophotometric assay
Set-up: species or system Hepacivirus hominis

Row | SMILES | pKi
1 | CCCC(NC(=O)[C@H](CC(C)C)NC(=O)[C@@H](NC(=O)OCC(C)C)C1CCCCC1)C(=O)C(=O)NCC(=O)N[C@H](C(=O)O)C1CCN(C(=O)OC(C)(C)C)CC1 (some centres not stated) | 5.48
2 | CCCC(NC(=O)[C@H](CC(C)C)NC(=O)[C@@H](NC(=O)OC(C)(C)C)C1CCCCC1)C(=O)C(=O)NCC(=O)NCc1ccccc1 (some centres not stated) | 4.09
3 | CCCC(NC(=O)[C@@H]1CCCN1C(=O)[C@@H](NC(=O)OC(C)(C)C)C1CCCCC1)C(=O)C(=O)NCC(=O)NCc1ccccc1 (some centres not stated) | 4.35
4 | CCCC(NC(=O)[C@H](CC(C)C)NC(=O)[C@@H](NC(=O)OC(C)(C)C)C1CCCCC1)C(=O)C(=O)NCC(=O)N[C@H](C(=O)OCc1ccccc1)c1ccccc1 (some centres not stated) (Boc-[Chg]L[X1]G[Phg]-OBn) | 6.22
5 | CCCC(NC(=O)[C@H](CC(C)C)NC(=O)[C@@H](NC(=O)OC(C)(C)C)C1CCCCC1)C(=O)C(=O)NCC(=O)N[C@H](C(=O)O)c1ccccc1 (some centres not stated) (Boc-[Chg]L[X1]G[Phg]-OH) | 7.01
6 | CCCC(NC(=O)[C@@H]1CCCN1C(=O)[C@@H](NC(=O)OCC(C)C)C(C)C)C(=O)C(=O)NCC(=O)N[C@@H](Cc1ccccc1)C(N)=O (some centres not stated) (Isobutyloxycarbonyl-VP[X1]GF-NH2) | 4.82
7 | CCCC(NC(=O)[C@@H]1CCCN1C(=O)[C@@H](NC(=O)OCC(C)C)C(C)C)C(=O)C(=O)NCC(=O)N[C@@H](COCc1ccccc1)C(N)=O (some centres not stated) (Isobutyloxycarbonyl-VP[X1]GS(Bn)-NH2) | 5.46
8 | CCCC(NC(=O)[C@@H]1CCCN1C(=O)[C@@H](NC(=O)OCC(C)C)C(C)C)C(=O)C(=O)NCC(=O)N[C@@H](Cc1ccc2ccccc2c1)C(N)=O (some centres not stated) (Isobutyloxycarbonyl-VP[X1]G[2Nal]-NH2) | 4.92
9 | CCCC(NC(=O)[C@@H]1CCCN1C(=O)[C@@H](NC(=O)OCC(C)C)C(C)C)C(=O)C(=O)NCC(=O)N[C@H](C(N)=O)C1CCCCC1 (some centres not stated) (Isobutyloxycarbonyl-VP[X1]G[Chg]-NH2) | 5.59
10 | CCCC(NC(=O)[C@@H]1CCCN1C(=O)[C@@H](NC(=O)OCC(C)C)C(C)C)C(=O)C(=O)NCC(=O)N[C@H](C(N)=O)c1ccccc1 (some centres not stated) (Isobutyloxycarbonyl-VP[X1]G[Phg]-NH2) | 5.68
11 | CCCC(NC(=O)[C@@H]1CCCN1C(=O)[C@@H](NC(=O)OCC(C)C)C(C)C)C(=O)C(=O)NCC(=O)N[C@@H](CCc1ccccc1)C(N)=O (some centres not stated) (Isobutyloxycarbonyl-VP[X1]G[hPhe]-NH2) | 5.17
12 | CCCC(NC(=O)[C@H](CC(C)C)NC(=O)[C@@H](NC(=O)OCC(C)C)C1CCCCC1)C(=O)C(=O)NCC(=O)N[C@@H](CC(=O)O)C(N)=O (some centres not stated) (Isobutyloxycarbonyl-[Chg]L[X1]GD-NH2) | 5.08
13 | CCCC(NC(=O)[C@H](CC(C)C)NC(=O)[C@@H](NC(=O)OCC(C)C)C1CCCCC1)C(=O)C(=O)NCC(=O)N[C@@H](COC(C)(C)C)C(N)=O (some centres not stated) (Isobutyloxycarbonyl-[Chg]L[X1]GS(tBu)-NH2) | 6.34
14 | CCCC(NC(=O)[C@H](CC(C)C)NC(=O)[C@@H](NC(=O)OCC(C)C)C1CCCCC1)C(=O)C(=O)NCC(=O)N[C@H](C(N)=O)C(C)C (some centres not stated) (Isobutyloxycarbonyl-[Chg]L[X1]GV-NH2) | 5.59
15 | CCCC(NC(=O)[C@H](CC(C)C)NC(=O)[C@@H](NC(=O)OCC(C)C)C1CCCCC1)C(=O)C(=O)NCC(=O)N[C@H](C(=O)O)C1CCCC1 (some centres not stated) (Isobutyloxycarbonyl-[Chg]L[X1]G[Gly(cPent)]-OH) | 6.48
16 | CCCC(NC(=O)[C@H](CC(C)C)NC(=O)[C@@H](NC(=O)OCC(C)C)C1CCCCC1)C(=O)C(=O)NCC(=O)N[C@H](C(=O)O)C1CCNCC1 (some centres not stated) (Isobutyloxycarbonyl-[Chg]L[X1]G[Gly(piperidin-4-yl)]-OH) | 5.19
17 | CCCC[C@H](NC(=O)CNC(=O)C(=O)C(CCC)NC(=O)[C@H](CC(C)C)NC(=O)[C@@H](NC(=O)OCC(C)C)C1CCCCC1)C(N)=O (some centres not stated) (Isobutyloxycarbonyl-[Chg]L[X1]G[Nle]-NH2) | 6.55
18 | CCCC(NC(=O)[C@H](CC(C)C)NC(=O)[C@@H](NC(=O)OCC(C)C)C1CCCCC1)C(=O)C(=O)NCC(=O)N[C@H](C(=O)O)c1ccccc1 (some centres not stated) (Isobutyloxycarbonyl-[Chg]L[X1]G[Phg]-OH) | 6.92
19 | CCCC(NC(=O)[C@H](CC(C)C)NC(=O)[C@@H](NC(=O)OCC(C)C)C1CCCCC1)C(=O)C(=O)NCC(=O)N[C@H](C(=O)OC(C)(C)C)c1ccccc1 (some centres not stated) (Isobutyloxycarbonyl-[Chg]L[X1]G[Phg]-OtBu) | 6.19
20 | CCCC(NC(=O)[C@@H]1CCCN1C(=O)[C@@H](NC(=O)OCC(C)C)C1CCCCC1)C(=O)C(=O)NCC(=O)N[C@H](C(N)=O)c1ccccc1 (some centres not stated) (Isobutyloxycarbonyl-[Chg]P[X1]G[Phg]-NH2) | 6.44

The remaining lines, values ahead:

Row | pKi | SMILES
21 | 4.26 | CCCC(NC(=O)[C@@H]1CCCN1C(=O)[C@@H](NC(=O)OCC(C)C)C(C)C)C(=O)C(=O)NCC(=O)N[C@@H](CC(=O)OC)C(=O)OC (some centres not stated) (Isobutyloxycarbonyl-VP[X1]GD(OMe)-OMe)
22 | < 4.00 | CCCC(NC(=O)[C@@H]1CCCN1C(=O)[C@@H](NC(=O)OCC(C)C)C(C)C)C(=O)C(=O)NCC(=O)N[C@@H](CC(=O)O)C(=O)O (some centres not stated) (Isobutyloxycarbonyl-VP[X1]GD-OH)
23 | 4.70 | CCCC(NC(=O)[C@@H]1CCCN1C(=O)[C@@H](NC(=O)OCC(C)C)C(C)C)C(=O)C(=O)NCC(=O)N[C@@H](CCC(=O)OCC)C(=O)OC (some centres not stated) (Isobutyloxycarbonyl-VP[X1]GE(OEt)-OMe)
24 | < 4.00 | CCCC(NC(=O)[C@@H]1CCCN1C(=O)[C@@H](NC(=O)OCC(C)C)C(C)C)C(=O)C(=O)NCC(=O)N[C@@H](CCC(=O)O)C(=O)O (some centres not stated) (Isobutyloxycarbonyl-VP[X1]GE-OH)
25 | 4.82 | CCCC(NC(=O)[C@@H]1CCCN1C(=O)[C@@H](NC(=O)OCC(C)C)C(C)C)C(=O)C(=O)NCC(=O)N[C@H](C(=O)O)[C@@H](C)CC (some centres not stated) (Isobutyloxycarbonyl-VP[X1]GI-OH)
26 | 4.82 | CCCC(NC(=O)[C@@H]1CCCN1C(=O)[C@@H](NC(=O)OCC(C)C)C(C)C)C(=O)C(=O)NCC(=O)N[C@H](C(=O)OC)[C@@H](C)CC (some centres not stated) (Isobutyloxycarbonyl-VP[X1]GI-OMe)
27 | 4.09 | CCCC(NC(=O)[C@@H]1CCCN1C(=O)[C@@H](NC(=O)OCC(C)C)C(C)C)C(=O)C(=O)NCC(=O)N[C@@H](CCCCN)C(N)=O (some centres not stated) (Isobutyloxycarbonyl-VP[X1]GK-NH2)
28 | 4.80 | CCCC(NC(=O)[C@@H]1CCCN1C(=O)[C@@H](NC(=O)OCC(C)C)C(C)C)C(=O)C(=O)NCC(=O)N[C@@H](CC(C)C)C(N)=O (some centres not stated) (Isobutyloxycarbonyl-VP[X1]GL-NH2)
29 | 4.74 | CCCC(NC(=O)[C@@H]1CCCN1C(=O)[C@@H](NC(=O)OCC(C)C)C(C)C)C(=O)C(=O)NCC(=O)N[C@@H](CCCC(=O)O)C(N)=O (some centres not stated) (Isobutyloxycarbonyl-VP[X1]G[Aad]-NH2)
30 | 5.10 | CCCC(NC(=O)[C@@H]1CCCN1C(=O)[C@@H](NC(=O)OCC(C)C)C(C)C)C(=O)C(=O)NCC(=O)N[C@@H](CC1CCCCC1)C(N)=O (some centres not stated) (Isobutyloxycarbonyl-VP[X1]G[Cha]-NH2)
31 | 4.28 | CCCC(NC(=O)[C@@H]1CCCN1C(=O)[C@@H](NC(=O)OCC(C)C)C(C)C)C(=O)C(=O)NCC(=O)N[C@H](C(N)=O)C(C)(C)C (some centres not stated) (Isobutyloxycarbonyl-VP[X1]G[Tle]-NH2)
32 | 3.95 | CCCC(NC(=O)[C@@H]1CCCN1C(=O)[C@@H](NC(=O)OCC(C)C)C(C)C)C(=O)C(=O)NCC(=O)N[C@@H](CCO)C(N)=O (some centres not stated) (Isobutyloxycarbonyl-VP[X1]G[hSer]-NH2)
